Measured values reported in ChEMBL document CHEMBL3804812, “Design, Syntheses, and Anti-TB Activity of 1,3-Benzothiazinone Azide and Click Chemistry Products Inspired by BTZ043” (ACS Med Chem Lett, 2016).
Converted amounts (≈) assume the structure as drawn. The source made the active and inactive calls. No cut-off for these calls is given here.

Key:
[1] = molecular target: T1, Decaprenylphosphoryl-beta-D-ribose oxidase (Mycobacterium smegmatis (strain ATCC 700084 / mc(2)155)) (UniProt A0R607); assay: Inhibition of DprE1 in P-14C-RPP-labelled Mycobacterium smegmatis MC2 155 cell membranes assessed as supression of conversion of decaprenylphosphoryl ribose to decaprenylphosphoryl arabinose after 1 hr by TLC analysis; format: cell-based; settings: Mycolicibacterium smegmatis MC2 155
T1 sequence (whole entry): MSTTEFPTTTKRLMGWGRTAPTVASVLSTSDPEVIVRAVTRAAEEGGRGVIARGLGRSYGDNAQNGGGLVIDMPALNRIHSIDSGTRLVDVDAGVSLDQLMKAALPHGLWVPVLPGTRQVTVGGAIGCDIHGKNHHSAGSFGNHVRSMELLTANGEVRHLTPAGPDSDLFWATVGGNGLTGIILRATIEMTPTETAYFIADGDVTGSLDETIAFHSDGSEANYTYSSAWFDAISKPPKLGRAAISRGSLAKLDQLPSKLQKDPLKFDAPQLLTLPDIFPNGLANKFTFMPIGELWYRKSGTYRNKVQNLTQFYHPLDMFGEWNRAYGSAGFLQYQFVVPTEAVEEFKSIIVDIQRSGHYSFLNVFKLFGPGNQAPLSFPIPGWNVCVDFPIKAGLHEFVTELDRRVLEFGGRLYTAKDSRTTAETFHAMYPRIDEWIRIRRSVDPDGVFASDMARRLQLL

[2] = tested on: Mycobacterium tuberculosis; assay: Antibacterial activity against Mycobacterium tuberculosis H37Rv in 7H12 medium by microplate alamar blue assay; format: functional; settings: for MIC: Mycobacterium tuberculosis, H37Rv
[3] = tested on: Mycobacterium tuberculosis; assay: Antibacterial activity against Mycobacterium tuberculosis H37Rv in GAS medium by microplate alamar blue assay; format: functional; settings: for MIC: Mycobacterium tuberculosis, H37Rv
[4] = tested on: Mycobacterium tuberculosis; assay: Antibacterial activity against Mycobacterium tuberculosis H37Rv in GAS medium at >1uM by microplate alamar blue assay; format: functional
[5] = molecular target: T2, Decaprenylphosphoryl-beta-D-ribose oxidase (Mycobacterium tuberculosis (strain ATCC 25618 / H37Rv)) (UniProt P9WJF1); assay: Reversible inhibition of recombinant Mycobacterium tuberculosis H37Rv DprE1 using FPR as substrate assessed as residual enzymatic activity preincubated for 10 mins followed by substrate addition by fluorescence assay
T2 sequence (whole entry): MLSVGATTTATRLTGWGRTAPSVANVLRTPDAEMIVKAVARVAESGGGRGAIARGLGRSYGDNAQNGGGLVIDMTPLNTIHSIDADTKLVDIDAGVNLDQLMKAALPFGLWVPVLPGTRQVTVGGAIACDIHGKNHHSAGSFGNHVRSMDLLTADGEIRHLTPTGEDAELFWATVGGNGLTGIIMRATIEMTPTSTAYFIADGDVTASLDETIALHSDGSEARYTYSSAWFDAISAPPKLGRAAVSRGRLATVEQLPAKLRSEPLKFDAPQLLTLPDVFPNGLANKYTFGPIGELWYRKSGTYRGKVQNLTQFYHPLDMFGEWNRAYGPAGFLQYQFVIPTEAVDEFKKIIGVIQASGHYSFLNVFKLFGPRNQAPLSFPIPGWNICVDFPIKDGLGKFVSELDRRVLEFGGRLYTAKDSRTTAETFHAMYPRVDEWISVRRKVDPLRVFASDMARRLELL

[6] = molecular target: T3, Decaprenylphosphoryl-beta-D-ribose oxidase (Mycobacterium tuberculosis (strain ATCC 25618 / H37Rv), UniProt P9WJF1); assay: Inhibition of recombinant Mycobacterium tuberculosis H37Rv DprE1 using FPR as substrate assessed as residual enzymatic activity preincubated for 10 mins followed by substrate addition by fluorescence assay
T3 sequence (P9WJF1 whole entry): T2 sequence (whole entry)

[7] = tested on: Mycobacterium tuberculosis; assay: Antibacterial activity against Mycobacterium tuberculosis H37Rv in 7H12 medium at >1uM by microplate alamar blue assay; format: functional
[8] = molecular target: T2, Decaprenylphosphoryl-beta-D-ribose oxidase (Mycobacterium tuberculosis (strain ATCC 25618 / H37Rv)); assay: Irreversible inhibition of recombinant Mycobacterium tuberculosis H37Rv DprE1 using FPR as substrate assessed as residual enzymatic activity preincubated for 10 mins followed by substrate addition by fluorescence assay

| Compound | inhibition [1] | MIC [2] [µM] | MIC [3] [µM] | growth inhibition (GI) [4] [%] | inhibition [5] | IC50 [6] [µM] | growth inhibition (GI) [7] [%] | inhibition [8] | inhibition (INH) [2] [%] | inhibition (INH) [3] [%] |
| --- | --- | --- | --- | --- | --- | --- | --- | --- | --- | --- |
| C[C@H]1COC2(CCN(c3nc(=O)c4cc(C(F)(F)F)ccc4s3)CC2)O1 | inactive | > 100 | 8.68 (≈ 3.35 µg/mL) | – | – | – | – | – | – | – |
| CCOC(=O)c1cn(-c2cc(C(F)(F)F)cc3c(=O)nc(N4CCC5(CC4)OC[C@H](C)O5)sc23)nn1 | – | 0.93 (≈ 0.489 µg/mL) | > 1 | 34 | – | – | – | – | – | – |
| CO[C@H]1/C=C/O[C@@]2(C)Oc3c(C)c(O)c4c(O)c(c(/C=N/N5CCN(C)CC5)c(O)c4c3C2=O)NC(=O)/C(C)=C\C=C\[C@H](C)[C@H](O)[C@@H](C)[C@@H](O)[C@@H](C)[C@H](OC(C)=O)[C@@H]1C [RIFAMPIN] | – | 0.05 (≈ 0.0411 µg/mL) | 0.04 (≈ 0.0329 µg/mL) | – | – | – | – | – | – | – |
| C[C@H]1COC2(CCN(c3nc(=O)c4cc(C(F)(F)F)cc(N=[N+]=[N-])c4s3)CC2)O1 | inactive | 0.47 (≈ 0.201 µg/mL) | 0.46 (≈ 0.197 µg/mL) | – | Active | 9.6 | – | – | – | – |
| C[C@H]1COC2(CCN(c3nc(=O)c4cc(C(F)(F)F)cc(-n5cc(Cc6ccccc6)nn5)c4s3)CC2)O1 | – | 9.9 (≈ 5.38 µg/mL) | 9.27 (≈ 5.04 µg/mL) | 0 | – | – | 0 | – | – | – |
| C[C@H]1COC2(CCN(c3nc(=O)c4cc(C(F)(F)F)cc([N+](=O)[O-])c4s3)CC2)O1 [BTZ-043] | Active | < 0.004 | < 0.004 | – | – | – | – | Active | – | – |
| C[C@H]1COC2(CCN(c3nc(=O)c4cc(C(F)(F)F)cc(N)c4s3)CC2)O1 | – | > 10 | > 10 | 0 | – | – | 87 | – | 12 | 10 |
| C[C@H]1COC2(CCN(c3nc(=O)c4cc(C(F)(F)F)cc(-n5cc(CN(C)C)nn5)c4s3)CC2)O1 | – | 0.87 (≈ 0.444 µg/mL) | 0.95 (≈ 0.485 µg/mL) | – | – | – | – | – | – | – |
